Laboratory results taken from patent US8835644B2, “Broad spectrum benzothiophene-nitrothiazolide and other antimicrobials” (University of Virginia Patent Foundation, priority 2009, dated 2014).
In brackets after ≈: the same amount, converted by molar mass. Like-named read-outs stand apart in the source and are kept apart here.

Experiments:
[1] = system: S. epidermidis strain 9142; assay: Effect of zinc on the action of NTZ (biofilm and MIC); assay type: cell-based, Staphylococcus epidermidis; settings: zinc 20 μM, read at 8 h
Description: […] As a control, ZnCl2 was added to untreated bacteria. Additional controls included testing of 10 μM CaCl2 and MgCl2 in the same format. The inhibitory effect of EDTA on biofilm production and its reversibility by Zn^2+ was also assessed as described for NTZ.

E. coli = assay: MIC testing by broth dilution, E. coli plank; assay type: cell-based, Escherichia coli
Outline: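 Twofold broth microdilution from 32 μg/ml down to 0.06, in LB for E. coli, Trypticase Soy for S. epidermidis (planktonic) and Brain Heart Infusion for C. jejuni. C. difficile: anaerobic disk diffusion on Wilkins Chalgrin agar, inhibition zone expressed as a ratio to the NTZ zone.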

[2] = system: EAEC 042 (AAF/II fimbriae); assay: Hemagglutination of sheep erythrocytes, EAEC 042; assay type: cell-based, Escherichia coli; settings: EAEC 042 grown in MinA-G with 20 μg/ml NTZ; further: key: +++ = strong hemagglutination reaction; + weak; − no hemagglutination
Description: HA assays were performed in 96-well microplates as described in (1). Bacteria grown over night without shaking ([…]) were suspended in PBS and diluted to OD660 of […] was mixed with an equal volume of 3% (vol/vol) sheep erythrocyte suspension containing 1% mannose, except when type I fimbriae producing strains were assayed. In the latter, bacteria were grown statically in LB medium (with and without NTZ) for 48 h and HA was determined with guinea pig erythrocytes. HA reactions were incubated at 4° C. for […] HA was determined visually against controls receiving no NTZ. All assays were prepared in triplicate and repeated twice.

[3] = system: S. haemolyticus strain 33208; assay: Biofilm determination, crystal violet, S. haemolyticus; assay type: cell-based; settings: Staphylococcus haemolyticus; S. haemolyticus strain 33208, crystal violet; read-out: IC50 biofilm production
Description: Staphylococcal strains were cultured overnight in TSB at 37° C. with shaking, diluted in fresh medium to an OD600 of 0.01 and 200 W was dispensed into sterile flat bottom polystyrene 96 well microtiter plates (Costar 3596, Corning Inc.). […] Each compound and dilution was tested in triplicate. The plates were incubated overnight at 37° C. in a humidified incubator, without shaking and both growth and biofilm accumulation were determined at 16 h.
Following recording of turbidities, the culture medium was aspirated and the wells were washed three times with distilled water, blotted on paper towels, and fixed with 75% ethanol for 10 minutes.
To visualize biofilm material, 0.5% crystal violet was added to each well and after 5 minutes was removed and the wells washed three times with distilled water. Plates were read using a microplate reader at a wavelength of 570 nm. The dye was then extracted by adding 200 W of 95% ethanol, and the absorbance was read again at 570 nm. All assays were performed in triplicate and the mean and standard deviation determined. Generally, the ethanol-solubilized crystal violet was more reliable and these determinations are reported throughout.

[4] = system: aggR and aafA transcripts of EAEC 042; assay: qRT-PCR of aggR, aafA and rpoS; assay type: cell-based, Escherichia coli; settings: EAEC 042, MinA-G
Description: EAEC 042 was grown overnight in MinA-G medium and then diluted to a starting OD600 of 0.05 in three 50 ml MinA-G cultures with 0, 10, and 25 μg/ml NTZ. Bacterial cells were grown with shaking until the cultures reached an OD600 of ˜0.4 and were harvested by centrifugation at 4° C. The pellets were resuspended in 200 μl TE buffer, transferred to polystyrene round bottom 14 ml tubes, and total RNA was extracted by the TES-hot phenol method as previously described (15). The RNA was re-precipitated and washed two times with 500 μl 70% DEPC ethanol to remove any remaining salts. The pellets were dried at 37° C. and suspended in 100 μl DEPC water. RNA concentration was determined with a Nanoprop ND-1000 UV-Vis Spectrophotometer. RNA yields were typically in the 1.6-3.2 μg/μl range. Residual DNA was removed by treatment with TURBO DNase and stored at −80° C. (15).
Primers for real-time qRT-PCR were designed to yield approximately 150 base pair amplicons for the virulence genes aggR and aafA and for the stringent response gene rpoS, which served as an internal control. SuperScript™ II Reverse Transcriptase (Invitrogen) was used to synthesize first-strand cDNA from 1 μg purified RNA with 100 ng random primers (Invitrogen). RNA, random primers, and dNTPs (0.5 mM final concentration) were mixed, heated for 65° C. for 5 min, centrifuged briefly, and quick chilled on ice. […]

Compound: CC(=O)Oc1ccccc1C(=O)Nc1ncc([N+](=O)[O-])s1 [Nitazoxanide, 2-(acetyloxy)-N-(5-nitro-2-thiazolyl)benzamide, reference compound]
- Effect of Zn2+ on the growth inhibitory action (MIC) [1]: no effect
- MIC (E. coli; Escherichia coli, broth dilution, LB medium, 24 h, read-out: MIC (μM) E. coli Plank): 104 µM (≈ 32 µg/mL)
- MIC (E. coli; Escherichia coli, planktonic, Furan analogues table, read-out: MIC E. coli Plank): 104 µM (≈ 32 µg/mL)
- MIC (E. coli; planktonic, 2-amino-3,5-dinitrothiophene analogues table, read-out: MIC E. coli Plank): 104.1 µM (≈ 32 µg/mL)
- MIC (E. coli; planktonic, Thiophene analogues table, read-out: MIC E. coli Plank): 104.1 µM (≈ 32 µg/mL)
- HA (sheep erythrocytes), bacterial OD660 0.5 [2]: −
- HA (sheep erythrocytes), bacterial OD660 1.0 [2]: −
- HA (sheep erythrocytes), bacterial OD660 1.5 [2]: +
- IC50 [3]: 2.5 µg/mL (≈ 8.14 µM)
- Increase in aggR transcript levels over untreated controls [4]: ~10 fold
- aafA expression [4]: unaffected
